From publication PMC4880925 (Scientific Reports, 2016)

How the values were obtained:
CYP144A1 [1] = target: T1, CYP144A1 (Mycobacterium tuberculosis, UniProt P9WPL1); experiment: […]; supported by EPR and DSC (Tm […] to […] °C); assay type: binding
T1 construct: gene cyp144
Target sequence in this assay (P9WPL1 31-434): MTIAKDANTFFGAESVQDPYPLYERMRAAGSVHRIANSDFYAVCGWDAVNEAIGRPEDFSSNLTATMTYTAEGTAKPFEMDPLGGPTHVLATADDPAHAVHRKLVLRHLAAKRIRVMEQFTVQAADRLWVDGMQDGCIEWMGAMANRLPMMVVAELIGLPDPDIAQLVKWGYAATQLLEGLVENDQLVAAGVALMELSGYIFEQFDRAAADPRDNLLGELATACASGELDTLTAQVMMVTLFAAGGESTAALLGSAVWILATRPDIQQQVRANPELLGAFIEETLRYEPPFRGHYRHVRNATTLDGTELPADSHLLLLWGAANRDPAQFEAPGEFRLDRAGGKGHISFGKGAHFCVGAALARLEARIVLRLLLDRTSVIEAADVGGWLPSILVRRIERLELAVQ

CYP144A1 [2] = target: T1, CYP144A1; assay type: binding
Target sequence in this assay (P9WPL1 whole entry): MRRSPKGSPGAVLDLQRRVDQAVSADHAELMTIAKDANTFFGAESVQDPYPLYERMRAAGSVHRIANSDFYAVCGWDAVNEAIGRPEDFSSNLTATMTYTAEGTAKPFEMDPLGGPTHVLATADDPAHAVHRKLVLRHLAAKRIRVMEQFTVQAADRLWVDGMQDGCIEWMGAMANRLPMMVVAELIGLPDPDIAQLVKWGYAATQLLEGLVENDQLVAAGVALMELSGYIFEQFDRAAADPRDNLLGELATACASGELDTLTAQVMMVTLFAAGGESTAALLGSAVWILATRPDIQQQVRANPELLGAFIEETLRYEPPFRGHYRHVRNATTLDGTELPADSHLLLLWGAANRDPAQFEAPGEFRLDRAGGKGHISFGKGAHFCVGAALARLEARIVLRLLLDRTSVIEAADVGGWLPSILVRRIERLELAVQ

| Compound | Kd (CYP144A1 [1]) | differential scanning calorimetry, Tm raised from 47 to 50 °C (CYP144A1 [2]) |
| --- | --- | --- |
| Clc1ccc(COC(Cn2ccnc2)c2ccc(Cl)cc2Cl)cc1 (centres unmarked) [econazole] | 720 ± 180 nM |  |
| Clc1ccccc1C(c1ccccc1)(c1ccccc1)n1ccnc1 [clotrimazole] |  | 50 °C |
